Consider 5 substances from US9833497B2, “Human originated EGF domain proteins and use of the same” (CHENGDU SOURCEBIO LIMITED-LIABILITY COMPANY, priority 2013, dated 2017).

Assay type in all cases: cell-based
One assay has as its system Enterobacter cloacae. Nature of the assay: MIC against Gram-negative bacteria: Enterobacter cloacae. Conditions: 5×10^5 CFU/mL. A digest of the protocol: (§1)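 LB broth cultures at McFarland 0.5, spun down, resuspended, diluted to 5×10^5 CFU/mL final. Two-fold serial dilutions of purified human EGF domain proteins, triplicate. 37° C, 175 rpm shaking. Endpoint: no visible growth.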

The subject of the next assay is Aeromonas hydrophila. The assay can be described thus: MIC against Gram-negative bacteria: Aeromonas hydrophila. The settings on record: 5×10^5 CFU/mL. A digest of the protocol: as §1
Another assay deals with E. coli DH5α. The assay can be described thus: Antibacterial activity: MIC and growth curve against E. coli DH5α in 96-well plate. The settings on record: minimal inhibitory concentration against E. coli DH5α; 96-well plate, 5×10^5 CFU/mL, 37° C., judged after 8 h. A digest of the protocol:
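MIC taken as lowest protein level with no bacterial growth, tracked by A600 every 30 min during 37 °C, 175 rpm culture. Two-fold protein series 50-12.5 μg/mL final, triplicate wells, against 5×10^5 CFU/mL of LB-washed mid-log cells.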

In the next assay the test system is Proteus vulgaris. The assay can be described thus: MIC against Gram-negative bacteria: Proteus vulgaris. Conditions: 5×10^5 CFU/mL. A digest of the protocol:
as §1

A further assay concerns Proteus mirabilis. The assay can be described thus: MIC against Gram-negative bacteria: Proteus mirabilis. Conditions: 5×10^5 CFU/mL. A digest of the protocol:
as §1

For the next assay, the system named is Pseudomonas aeruginosa. Nature of the assay: MIC against Gram-negative bacteria: Pseudomonas aeruginosa. The settings on record: 5×10^5 CFU/mL. A digest of the protocol: as §1
The test system of a further assay is E. coli BL21. The assay can be described thus: MIC against Gram-negative bacteria: E. coli BL21. The settings on record: 5×10^5 CFU/mL. A digest of the protocol: as §1
Another assay has as its system Serratia marcescens. Nature of the assay: MIC against Gram-negative bacteria: Serratia marcescens. Conditions: 5×10^5 CFU/mL. A digest of the protocol: as §1
In a further assay the test system is Citrobacter diversus. Nature of the assay: MIC against Gram-negative bacteria: Citrobacter diversus. Conditions: 5×10^5 CFU/mL. A digest of the protocol:
as §1

The test system of another assay is Moraxella catarrhalis. The assay can be described thus: MIC against Gram-negative bacteria: Moraxella catarrhalis. The settings on record: 5×10^5 CFU/mL. In short, it runs like this:
as §1

The subject of the next assay is Klebsiella pneumonia. Nature of the assay: MIC against Gram-negative bacteria: Klebsiella pneumonia. Conditions: 5×10^5 CFU/mL. In short, it runs like this: as §1
[1] abbreviates: Enterobacter cloacae, 96-well plate, 37° C., 10 h.
Where [2] appears, read: Aeromonas hydrophila, 96-well plate, 37° C., 10 h.
[3] abbreviates: Proteus vulgaris, 96-well plate, 37° C., 10 h.
[4] abbreviates: Proteus mirabilis, 96-well plate, 37° C., 10 h.
Where [5] appears, read: Pseudomonas aeruginosa, 96-well plate, 37° C., 10 h.
The mark [6] stands for this setting: E. coli BL21, 96-well plate, 37° C., 10 h.
Setting [7] is: Serratia marcescens, 96-well plate, 37° C., 10 h.
Setting [8] is: Citrobacter diversus, 96-well plate, 37° C., 10 h.
Where [9] appears, read: Moraxella catarrhalis, 96-well plate, 37° C., 10 h.
Where [10] appears, read: Klebsiella pneumonia, 96-well plate, 37° C., 10 h.
Setting [11] is: 10 h cultivation at 37° C., two-fold serial dilution.

Turning to “PRT7 (TCLSSKEGTICSGNGVCSNELKCVCNRHWIGSDCN; listed as Homo sapiens)”, the “MIC (μg/mL) E. cloacae” value against Enterobacter cloacae (setting [1]) came out at 12.5 µg/mL. The “MIC (μg/mL) A. hydrophila” value with Aeromonas hydrophila (setting [2]) worked out at 50 µg/mL. The MIC in the assay on E. coli DH5α was 12.5 µg/mL. In the assay on Proteus vulgaris (setting [3]), the “MIC (μg/mL) P. vulgaris” value was 50 µg/mL. The “MIC (μg/mL) P. mirabilis” value in the assay on Proteus mirabilis (setting [4]) was found to be 50 µg/mL. For the same substance, the “MIC (μg/mL) P. aeruginosa” value in the assay on Pseudomonas aeruginosa (setting [5]) amounted to 25 µg/mL. Besides, the “MIC (μg/mL) E. coli BL21” value against E. coli BL21 (setting [6]) is 25 µg/mL. In the assay on Serratia marcescens (setting [7]), the “MIC (μg/mL) S. marcescens” value is 12.5 µg/mL. In addition, in the assay with Citrobacter diversus (setting [8]), the “MIC (μg/mL) C. diversus” value is 12.5 µg/mL. Besides, the “MIC (μg/mL) M. catarrhalis” value in the assay with Moraxella catarrhalis (setting [9]) was 25 µg/mL. Further, the “MIC (μg/mL) K. pneumonia” value against Klebsiella pneumonia (setting [10]) worked out at 12.5 µg/mL.
As for “PRT1323 (DCIECPGGAGSPCNGRGSCAEGMEGNGTCSCQEGFGGTACE; listed as Homo sapiens)”, in the assay on Enterobacter cloacae (setting [1]), the “MIC against E. cloacae” value is 12.5 µg/mL. Besides, the “MIC against A. hydrophila” value in the assay with Aeromonas hydrophila (setting [2]) was 12.5 µg/mL. In addition, the minimal inhibitory concentration (MIC) against E. coli DH5α came out at 12.5 µg/mL. In addition, the “MIC against P. vulgaris” value in the assay on Proteus vulgaris (setting [3]) is 50 µg/mL. Also, the “MIC against P. mirabilis” value in the assay with Proteus mirabilis (setting [4]) came out at 25 µg/mL. Moreover, in the assay on Pseudomonas aeruginosa (setting [5]), the “MIC against P. aeruginosa” value worked out at 12.5 µg/mL. Moreover, the “MIC against E. coli BL21” value in the assay on E. coli BL21 (setting [6]) came to 25 µg/mL. The “MIC against S. marcescens” value against Serratia marcescens (setting [7]) worked out at 12.5 µg/mL. In addition, the “MIC against C. diversus” value with Citrobacter diversus (setting [8]) came out at 50 µg/mL. Also, the “MIC against M. catarrhalis” value with Moraxella catarrhalis (setting [9]) was determined as 12.5 µg/mL. For the same substance, the “MIC against K. pneumonia” value against Klebsiella pneumonia (setting [10]) worked out at 25 µg/mL.
As to “PRT432 (DVDECATDSHQCNPTQICINTEGGYTCSCTDGYWLLEGQCL; listed as Homo sapiens)”, the MIC against Enterobacter cloacae (E. cloacae, 10 h cultivation at 37° C.) came to 25 µg/mL; against Aeromonas hydrophila (A. hydrophila, 10 h cultivation at 37° C.), 50 µg/mL; against E. coli DH5α it was 25 µg/mL; against Proteus vulgaris (P. vulgaris, 10 h cultivation at 37° C.), 50 µg/mL; with Proteus mirabilis (P. mirabilis, 10 h cultivation at 37° C.), 25 µg/mL; in the assay with Pseudomonas aeruginosa (P. aeruginosa, 10 h cultivation at 37° C.), 25 µg/mL. Further, the MIC came out at 50 µg/mL in the assay with E. coli BL21 (E. coli BL21, 10 h cultivation at 37° C.); 25 µg/mL with Serratia marcescens (S. marcescens, 10 h cultivation at 37° C.); 25 µg/mL against Citrobacter diversus (C. diversus, 10 h cultivation at 37° C.); 12.5 µg/mL against Moraxella catarrhalis (M. catarrhalis, 10 h cultivation at 37° C.); 12.5 µg/mL with Klebsiella pneumonia (K. pneumonia, 10 h cultivation at 37° C.).
For the substance “PRT1156 (IIGQCQPHVCFHGNCSNITSNSFICECDEQFSGPFCE; listed as Homo sapiens)”, in the assay on Enterobacter cloacae (setting [11]), the “MIC E. cloacae” value came out at 25 µg/mL. In the assay with Aeromonas hydrophila (setting [11]), the “MIC A. hydrophila” value is 50 µg/mL. This substance gave a minimal inhibitory concentration (MIC) in the assay on E. coli DH5α of 50 µg/mL. The “MIC P. vulgaris” value in the assay on Proteus vulgaris (setting [11]) is 12.5 µg/mL. For the same substance, the “MIC P. mirabilis” value with Proteus mirabilis (setting [11]) stood at 50 µg/mL. Further, the “MIC P. aeruginosa” value in the assay on Pseudomonas aeruginosa (setting [11]) came out at 12.5 µg/mL. Moreover, the “MIC E. coli BL21” value in the assay on E. coli BL21 (setting [11]) came out at 25 µg/mL. Moreover, the “MIC S. marcescens” value in the assay with Serratia marcescens (setting [11]) is 50 µg/mL. In addition, in the assay on Citrobacter diversus (setting [11]), the “MIC C. diversus” value worked out at 25 µg/mL. In the assay with Moraxella catarrhalis (setting [11]), the “MIC M. catarrhalis” value was determined as 12.5 µg/mL. Further, the “MIC K. pneumonia” value against Klebsiella pneumonia (setting [11]) was determined as 25 µg/mL.
Turning to “PRT576 (CTCNLLGTNPQQCPSPDQCHCDPSSGQCPCLPNVQGPSCDRCAPNFWNLTSGHGCQP; listed as Homo sapiens)”, the “MIC against E. cloacae” value in the assay on Enterobacter cloacae (96-well plate, 37° C., 10 h) was 12.5 µg/mL. For the same substance, the “MIC against A. hydrophila” value in the assay on Aeromonas hydrophila (96-well plate, 37° C., 10 h) is 12.5 µg/mL. The substance further displayed a minimum inhibitory concentration (MIC) with E. coli DH5α of 12.5 µg/mL. In the assay with Proteus vulgaris (96-well plate, 37° C., 10 h), the “MIC against P. vulgaris” value turned out to be 50 µg/mL. In the assay on Proteus mirabilis (96-well plate, 37° C., 10 h), the “MIC against P. mirabilis” value was 12.5 µg/mL. Also, the “MIC against P. aeruginosa” value in the assay on Pseudomonas aeruginosa (96-well plate, 37° C., 10 h) was 12.5 µg/mL. Further, the “MIC against E. coli BL21” value against E. coli BL21 (96-well plate, 37° C., 10 h) turned out to be 12.5 µg/mL. Besides, the “MIC against S. marcescens” value in the assay on Serratia marcescens (96-well plate, 37° C., 10 h) turned out to be 25 µg/mL. Moreover, the “MIC against C. diversus” value against Citrobacter diversus (96-well plate, 37° C., 10 h) turned out to be 12.5 µg/mL. The “MIC against M. catarrhalis” value against Moraxella catarrhalis (96-well plate, 37° C., 10 h) was 50 µg/mL. In the assay with Klebsiella pneumonia (96-well plate, 37° C., 10 h), the “MIC against K. pneumonia” value was 12.5 µg/mL.

Broadly, the MIC is the lowest concentration found to suppress growth. The low end stands for a more susceptible organism, the high end for a less susceptible organism.
